The results in this text go back to patent US5391552A, “Diphenylpiperazine derivative and drug for circulatory organ containing the same” (Pola Chemical Industries, Inc., priority 1990, dated 1995).

In assay [1] the test system is calcium. In words: Antagonism against calcium: inhibition of KCl-induced contraction of rat aorta ring specimens (Magnus tube, Test Example 1). Also noted: species or system Male Wistar rats. As to conditions: inhibits 50% of the maximum contraction by KCl (10-60 mM); rat aorta rings, 37 °C; read-out: 50% inhibitory concentration. How it is done: Male Wistar rats (300-350g) were exsanguinated to death and submitted to thoracotomy to take off aortae. Ring specimens having a width of 3 to 4 mm were prepared from the aortae. The specimen was suspended in a Magnus tube which was filled with Krebs Henseleit liquid of 37°±0.5° C., aerated with a mixing gas (95% of O2 and 5% of CO2) flowing in the liquid. A load of approximately 2 g was given to the specimen, and a tension variation was isometrically recorded.

Assay [2] deals with vertebral artery. In words: Variation of vertebral artery blood flow amount in anesthetized dogs (Test Example 2). The format is in vivo, crossbred adult dogs. As to conditions: i.v. How it is done:
After female and male crossbred adult dogs were put under anesthesia by using pentobarbital-Na, a cannula for blood pressure measuring and a cannula for drug dosing were set to the femoral artery and the femoral vein, respectively. The blood flow was measured using a probe fixed to the vertebral artery.

As to `Oc1ccc(SCC(O)CN2CCN(CCCC(c3ccc(F)cc3)c3ccc(F)cc3)CC2)cc1` (stereo not drawn) [Compound 39, 1-[4,4-Bis(4-fluorophenyl)butyl]-4-[2-hydroxy-3-(4-hydroxyphenylthio)propyl]piperazine], in assay [1], the IC50 came to 340 nM. As for `OC(CSCc1ccccc1)CN1CCN(C(c2ccc(F)cc2)c2ccc(F)cc2)CC1` (stereo not drawn) [Compound 24, 1-[Bis(4-fluorophenyl)methyl]-4-(2-hydroxy-3-phenylmethylthiopropyl)piperazine], the IC50 in assay [1] turned out to be 1400 nM. Consider `O[C@H](CSc1ccccc1)CN1CCN(CCCC(c2ccc(F)cc2)c2ccc(F)cc2)CC1` [Compound 16, (S)-(-)-1-[4,4-Bis(4-fluorophenyl)butyl]-4-(2-hydroxy-3-phenylthiopropyl)piperazine], for which, in assay [1], the IC50 was determined as 100 nM.

Take `OC(CSc1ccc(Cl)cc1)CN1CCN(CCCC(c2ccc(F)cc2)c2ccc(F)cc2)CC1` (stereo not drawn) [Compound 31, 1-[4,4-Bis(4-fluorophenyl)butyl]-4-[3-(4-chlorophenylthio)-2-hydroxyproply]piperazine]: the IC50 in assay [1] is 1100 nM.

As for `OC(CNCCc1ccccc1)CN1CCN(C(c2ccccc2)c2ccccc2)CC1` (stereo not drawn) [Compound 3, 1-Diphenylmethyl-4-[2-hydroxy-3-(2-phenylethylamino)propyl]piperazine], the IC50 in assay [1] came to 1300 nM. Still for that read-out and setting: under `COc1ccc(CCNCC(O)CN2CCN(C(c3ccccc3)c3ccccc3)CC2)cc1OC` (stereo not drawn) [Compound 5, 1-[3-{2-(3,4-Dimethoxyphenyl)ethylamino}-2-hydroxypropyl]-4-diphenylmethylpiperazine] stands 1200 nM.

Take `COc1ccccc1SCC(O)CN1CCN(C(c2ccc(F)cc2)c2ccc(F)cc2)CC1` (stereo not drawn) [Compound 45, 1-[Bis(4-fluorophenyl)methyl]-4-[2-hydroxy-3-(2methoxyphenylthio)propyl]piperazine]: the IC50 in assay [1] amounted to 1100 nM. The same measure, in the same setting: for `Cc1ccc(SCC(O)CN2CCN(CCCC(c3ccc(F)cc3)c3ccc(F)cc3)CC2)cc1` (stereo not drawn) [Compound 20, 1-[4,4-Bis(4-fluorophenyl)butyl]-4-[2-hydroxy-3-(4methylphenylthio)propyl]piperazine] the value was 270 nM.

On to `COc1ccc(SCC(O)CN2CCN(C(c3ccc(F)cc3)c3ccc(F)cc3)CC2)cc1` (stereo not drawn) [Compound 55, 1-[Bis (4-fluorophenyl)methyl]-4-[2-hydroxy-3-(4-methoxyphenylthio)propyl]piperazine], for which, in assay [1], the IC50 is 1300 nM. Consider `COc1ccc(SCC(O)CN2CCN(CCCC(c3ccc(F)cc3)c3ccc(F)cc3)CC2)cc1` (stereo not drawn) [Compound 41, 1-[4,4-Bis(4-fluorophenyl)butyl]-4-[2-hydroxy-3-(4-methoxyphenylthio)propyl]piperazine], for which, in assay [1], the IC50 turned out to be 430 nM. Moreover, the “Variation of the blood flow amount” value in assay [2] (10 μg/kg) is on record as 12%; in assay [2] (30 μg/kg), 25%; in assay [2] (100 μg/kg), 66%; in assay [2] (300 μg/kg), 87%. For `OC(CSc1ccccc1)CN1CCN(CC(c2ccccc2)c2ccccc2)CC1` (stereo not drawn) [Compound 47, 1-(2,2-Diphenylethyl)-4-(2-hydroxy-3-phenylthiopropyl)piperazine], the IC50 in assay [1] came to 690 nM.

Take `OC(CSc1ccccc1)CN1CCN(C(c2ccc(F)cc2)c2ccc(F)cc2)CC1` (stereo not drawn) [Compound 53, 1-[Bis(4-fluorophenyl)methyl]-4-(2-hydroxy-3-phenylthiopropyl)piperazine]: in assay [1], the IC50 amounted to 1200 nM. As for `OC(CSCc1ccccc1)CN1CCN(CCCC(c2ccc(F)cc2)c2ccc(F)cc2)CC1` (stereo not drawn) [Compound 28, 1-[4,4-Bis(4-fluorophenyl)butyl]-4-(2-hydroxy-3-phenylmethylthiopropyl)piperazine], the IC50 in assay [1] was found to be 110 nM.

As for `OC(CSc1ccc(F)cc1)CN1CCN(CCCC(c2ccc(F)cc2)c2ccc(F)cc2)CC1` (stereo not drawn) [Compound 37, 1-[4,4-Bis(4-fluorophenyl)butyl]-4-[3-(4-fluorophenylthio)-2-hydroxypropyl]piperazine], in assay [1], the IC50 turned out to be 140 nM. With `OC(CSc1ccccc1)CN1CCN(CCCC(c2ccc(F)cc2)c2ccc(F)cc2)CC1` (stereo not drawn) [Compound 10, 1-[4,4-Bis(4-fluorophenyl)butyl]-4-(2-hydroxy-3-phenylthiopropyl)piperazine.2HCl], the IC50 in assay [1] stood at 160 nM. The “Variation of the blood flow amount” value in assay [2] (10 μg/kg) was found to be 18%; in assay [2] (30 μg/kg), 14%; in assay [2] (100 μg/kg) it was 80%; in assay [2] (300 μg/kg), 125%. With `OC(CNc1ccccc1)CN1CCN(CCCC(c2ccc(F)cc2)c2ccc(F)cc2)CC1` (stereo not drawn) [Compound 6, 1-[4,4-Bis(4-fluorophenyl)butyl]-4-(2-hydroxy-3-phenylaminopropyl)piperazine], the IC50 in assay [1] was 220 nM.

Regarding `Nc1ccc(SCC(O)CN2CCN(CCCC(c3ccc(F)cc3)c3ccc(F)cc3)CC2)cc1` (stereo not drawn) [Compound 22, 1-[(4-Aminophenylthio)-2-hydroxypropyl]-4-[4,4bis(4-fluorophenyl)butyl]piperazine], the IC50 in assay [1] turned out to be 630 nM. On to `Fc1ccc(C(c2ccc(F)cc2)N2CCN(C/C=C/c3ccccc3)CC2)cc1` [Furnarizine, furnarizine, reference compound], for which the “Variation of the blood flow amount” value stood at 8% in assay [2] (30 μg/kg), 27% in assay [2] (100 μg/kg), 44% in assay [2] (300 μg/kg) and 55% in assay [2] (1000 μg/kg). Take `COc1ccccc1CCNCC(O)CN1CCN(C(c2ccccc2)c2ccccc2)CC1` (stereo not drawn) [Compound 4, 1-Diphenylmethyl-4-[2-hydroxy-3-{2-(2-methoxyphenyl)ethylamino}propyl]piperazine]: the IC50 in assay [1] stood at 1300 nM. Turning to `COC(CSc1ccccc1)CN1CCN(CCCC(c2ccc(F)cc2)c2ccc(F)cc2)CC1` (stereo not drawn) [Compound 12, 1-[4,4-Bis(4-fluorophenyl)butyl]-4-(2-methoxy-3-phenylthiopropyl)piperazine.2HCl], the IC50 in assay [1] amounted to 200 nM.

On to `OC(CSc1cccc2ccccc12)CN1CCN(CCCC(c2ccc(F)cc2)c2ccc(F)cc2)CC1` (stereo not drawn) [Compound 57, 1-[4,4-Bis(4-fluorophenyl)butyl]-4-[2-hydroxy-3-(1-naphthylthio)propyl]piperazine], for which, in assay [1], the IC50 was 340 nM. On the same count and under the same terms, under `CC(=O)OC(CSc1ccccc1)CN1CCN(CCCC(c2ccc(F)cc2)c2ccc(F)cc2)CC1` (stereo not drawn) [Compound 14, 1-(2-Acetoxy-3-phenylthiopropyl)-4-[4,4-bis(4-fluorophenyl)butyl]piperazine.2HCl] stands 280 nM. In the case of `O[C@@H](CSc1ccccc1)CN1CCN(CCCC(c2ccc(F)cc2)c2ccc(F)cc2)CC1` [Compound 18, (R)-(+)-1-[4,4-Bis(4-fluorophenyl)butyl]-4-(2-hydroxy-3-phenylthiopropyl)piperazine], the IC50 in assay [1] was found to be 130 nM. Consider `COc1cccc(SCC(O)CN2CCN(CCCC(c3ccc(F)cc3)c3ccc(F)cc3)CC2)c1` (stereo not drawn) [Compound 43, 1-[4,4-Bis(4-fluorophenyl)butyl]-4-[2-hydroxy-3-(3-methoxyphenylthio)propyl]piperazine], for which the IC50 in assay [1] was determined as 280 nM. Further, the “Variation of the blood flow amount” value in assay [2] (10 μg/kg) was 7%; in assay [2] (30 μg/kg), 15%; in assay [2] (100 μg/kg), 55%; in assay [2] (300 μg/kg), 131%. For `COc1ccccc1SCC(O)CN1CCN(CCCC(c2ccc(F)cc2)c2ccc(F)cc2)CC1` (stereo not drawn) [Compound 35, 1-[4,4-Bis(4-fluorophenyl)butyl]-4-[2-hydroxy-3-(2-methoxyphenylthio)propyl]piperazine], in that order: 160 nM, 13%, 26%, 66% and 87%. As to `OC(CSc1ccccc1)CN1CCN(CCCC(c2ccccc2)c2ccccc2)CC1` (stereo not drawn) [Compound 51, 1-(4,4-Diphenylbutyl)-4-(2-hydroxy-3-phenylthiopropyl)piperazine], the IC50 in assay [1] was determined as 140 nM.
